Reference: patent publication US20260152487A1 (Sitryx Therapeutics Limited, priority 2021, published 2026)

Molecular target: T1, recombinant human PKM2 (Homo sapiens, UniProt P14618)
T1 construct: His (N); purchased R&D Systems
Experiment: Human PKM2 activation assay (Kinase-Glo Plus luminescent detection of generated ATP)
Format: biochemical
Details: for Emax: read-out: hPKM2 Emax; for EC50: recombinant human PKM2 activation, 4-parameter logistic fit, read-out: hPKM2 EC50
In short: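 N-His-tagged recombinant hPKM2 ([…]) with PEP and ADP was incubated with compound for 60 min at 26 °C, shaking, in 50 mM imidazole, 50 mM KCl, 7 mM MgCl2, 0.01% Tween20, 0.05% BSA, pH 7.2. ATP produced was read by Kinase-Glo Plus luminescence after 15 min.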

[1] = percentage activation normalised to DMSO vehicle (LOW) and 5 μM TEPP-46 (HIGH)

T1 sequence (P14618 2-531 limits assumed): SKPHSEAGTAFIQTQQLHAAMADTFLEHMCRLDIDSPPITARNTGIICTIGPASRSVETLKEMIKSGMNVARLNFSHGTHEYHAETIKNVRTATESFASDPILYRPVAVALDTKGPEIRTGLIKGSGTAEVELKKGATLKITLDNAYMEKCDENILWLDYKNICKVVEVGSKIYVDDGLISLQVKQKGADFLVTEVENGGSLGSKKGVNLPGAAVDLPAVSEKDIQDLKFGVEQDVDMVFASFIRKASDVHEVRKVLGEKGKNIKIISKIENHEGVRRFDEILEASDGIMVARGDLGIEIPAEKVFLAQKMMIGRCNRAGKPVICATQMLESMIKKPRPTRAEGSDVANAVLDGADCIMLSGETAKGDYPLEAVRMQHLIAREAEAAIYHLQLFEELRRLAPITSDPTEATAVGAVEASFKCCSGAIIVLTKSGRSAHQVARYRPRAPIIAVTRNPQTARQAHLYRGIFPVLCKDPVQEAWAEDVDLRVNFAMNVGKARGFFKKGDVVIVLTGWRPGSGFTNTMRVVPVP

Structure (SMILES) | Emax [1] | EC50 | hPKM2 Emax [1]
COc1ccc(Cn2ncc3cc(S(=O)(=O)c4ccn5ccnc5c4)ccc3c2=O)cn1 [Example 184, 6-(imidazo[1,2-a]pyridin-7-ylsulfonyl)-2-((6-methoxypyridin-3-yl)methyl)phthalazin-1(2H)-one] | 59.6% | 638 nM | –
Cc1cccc(Cn2ncc3cc(S(=O)(=O)c4n[nH]cc4F)ccc3c2=O)n1 [Example 316] | 110% | 200 nM | –
COc1ccc(S(=O)(=O)c2ccc3c(=O)n(Cc4ccn(CCO)n4)ncc3c2)cn1 [Example 285, 2-((1-(2-hydroxyethyl)-1H-pyrazol-3-yl)methyl)-6-((6-methoxypyridin-3-yl)sulfonyl)phthalazin-1(2H)-one] | 98.4% | 217 nM | –
Nc1cccc(Cn2ncc3cc(S(=O)(=O)c4cccc5cccnc45)ccc3c2=O)c1 [Example 114, 2-(3-aminobenzyl)-6-(quinolin-8-ylsulfonyl)phthalazin-1(2H)-one] | 97.1% | 208 nM | –
Cn1cc(S(=O)(=O)c2ccc3c(=O)n(Cc4cccnc4O)ncc3c2)cn1 [Example 200, 2-((2-hydroxypyridin-3-yl)methyl)-6-((1-methyl-1H-pyrazol-4-yl)sulfonyl)phthalazin-1(2H)-one] | 80.2% | 621 nM | –
Cn1ccc(S(=O)(=O)c2ccc3c(=O)n(Cc4cc[nH]n4)ncc3c2)n1 [Example 306] | 104% | 241 nM | –
Cc1cccc(Cn2ncc3cc(S(=O)(=O)c4c[nH]nc4Cl)ccc3c2=O)n1 [Example 318] | 95.2% | 185 nM | –
COc1ccc(Cn2ncc3cc(S(=O)(=O)c4cccc(C)n4)ccc3c2=O)cn1 [Example 169, 2-((6-methoxypyridin-3-yl)methyl)-6-(6-methylpyridin-2-ylsulfonyl)phthalazin-1(2H)-one] | 83% | 185 nM | –
COc1ccc(Cn2ncc3cc(S(=O)(=O)c4ccn(C)n4)ccc3c2=O)cn1 [Example 158, 2-((6-methoxypyridin-3-yl)methyl)-6-((1-methyl-1H-pyrazol-3-yl)sulfonyl)phthalazin-1(2H)-one] | 85.4% | 186 nM | –
Cn1cc(S(=O)(=O)c2cc3cnn(Cc4cc[nH]n4)c(=O)c3cc2NCCO)cn1 [Example 268, 2-((1H-pyrazol-3-yl)methyl)-7-((2-hydroxyethyl)amino)-6-((1-methyl-1H-pyrazol-4-yl)sulfonyl)phthalazin-1(2H)-one] | 102% | 352 nM | –
Cc1cccc(S(=O)(=O)c2ccc3c(=O)n(Cc4cc[nH]n4)ncc3c2)n1 [Example 288, 2-((1H-pyrazol-3-yl)methyl)-6-((6-methylpyridin-2-yl)sulfonyl)phthalazin-1(2H)-one] | 93.9% | 187 nM | –
COc1ccc(Cn2ncc3cc(S(=O)(=O)c4cc[nH]n4)ccc3c2=O)cn1 [Example 140, 6-((1H-pyrazol-3-yl)sulfonyl)-2-((6-methoxypyridin-3-yl)methyl)phthalazin-1(2H)-one] | 107% | 192 nM | –
COc1ccc(S(=O)(=O)c2ccc3c(=O)n(Cc4cnccc4O)ncc3c2)cc1 [Example 107, 2-((4-hydroxypyridin-3-yl)methyl)-6-(4-methoxyphenylsulfonyl)phthalazin-1(2H)-one] | 103% | 585 nM | –
Cn1ccc(Cn2ncc3cc(S(=O)(=O)c4ccccc4)cc(F)c3c2=O)n1 [Example 245, 8-fluoro-2-((1-methyl-1H-pyrazol-3-yl)methyl)-6-(phenylsulfonyl)phthalazin-1(2H)-one] | 103% | 54.2 nM | –
O=c1c2ccc(S(=O)(=O)c3ccncc3)cc2cnn1Cc1cc[nH]n1 [Example 254, 2-((1H-pyrazol-3-yl)methyl)-6-(pyridin-4-ylsulfonyl)phthalazin-1(2H)-one] | 107% | 498 nM | –
Cn1cc(S(=O)(=O)c2cc3cnn(Cc4cc[nH]n4)c(=O)c3cn2)cn1 [Example 266, 3-((1H-pyrazol-3-yl)methyl)-7-((1-methyl-1H-pyrazol-4-yl)sulfonyl)pyrido[3,4-d]pyridazin-4(3H)-one] | 92.3% | 191 nM | –
COc1ccc(Cn2ncc3cc([S@@](=N)(=O)c4ccccc4)ccc3c2=O)cn1 (single isomer, unassigned) [Example 133] | 77.3% | 444 nM | –
COc1ccc(Cn2ncc3cc(S(=O)(=O)c4cccc5sc(C)nc45)ccc3c2=O)cn1 [Example 176, 2-((6-methoxypyridin-3-yl)methyl)-6-(2-methylbenzo[d]thiazol-4-ylsulfonyl)phthalazin-1(2H)-one] | 95.8% | 455 nM | –

Further lines, results first:

Emax [1] | EC50 | hPKM2 Emax [1] | Structure (SMILES)
95.5% | 65.8 nM | – | COc1ccc(Cn2ncc3cc(S(=O)(=O)c4ccc5c(c4)CC(C)O5)ccc3c2=O)cn1 (centres unmarked) [Example 167, 2-((6-methoxypyridin-3-yl)methyl)-6-((2-methyl-2,3-dihydrobenzofuran-5-yl)sulfonyl)phthalazin-1(2H)-one]
91.4% | 109 nM | – | COc1ccc(F)c(Cn2ncc3cc(S(=O)(=O)c4ccn(C)n4)ccc3c2=O)c1 [Example 199, 2-(2-fluoro-5-methoxybenzyl)-6-((1-methyl-1H-pyrazol-3-yl)sulfonyl)phthalazin-1(2H)-one]
107% | 31.5 nM | – | O=c1c2ccc(S(=O)(=O)c3cn[nH]c3)cc2cnn1Cc1ccc2c(n1)OCCO2 [Example 344]
93.4% | 25.2 nM | – | Cn1ccc(Cn2ncc3cc(S(=O)(=O)c4ccc5c(c4)OCCO5)ccc3c2=O)n1 [Example 215, 6-((2,3-dihydrobenzo[b][1,4]dioxin-6-yl)sulfonyl)-2-((1-methyl-1H-pyrazol-3-yl)methyl)phthalazin-1(2H)-one]
113% | 11.4 nM | – | Cc1cc2nc(Cn3ncc4cc(S(=O)(=O)c5cn[nH]c5)ccc4c3=O)ccc2o1 [Example 345]
111% | 93.5 nM | – | Cn1ccc2cc(S(=O)(=O)c3ccc4c(=O)n(Cc5cc[nH]n5)ncc4c3)ccc21 [Example 231, 2-((1H-pyrazol-3-yl)methyl)-6-((1-methyl-1H-indol-5-yl)sulfonyl)phthalazin-1(2H)-one]
104% | 150 nM | – | COc1cccc(Cn2ncc3cc(S(=O)(=O)c4cn[nH]c4)ccc3c2=O)n1 [Example 294, 6-((1H-pyrazol-4-yl)sulfonyl)-2-((6-methoxypyridin-2-yl)methyl)phthalazin-1(2H)-one]
117% | 27.5 nM | – | COC(C)c1nc(S(=O)(=O)c2ccc3c(=O)n(Cc4ccc5occc5n4)ncc3c2)cs1 (centres unmarked) [Example 352]
98% | 172 nM | – | O=c1c2cc(NCCO)c(S(=O)(=O)c3ccccc3)cc2cnn1Cc1cc[nH]n1 [Example 263, 2-((1H-pyrazol-3-yl)methyl)-7-((2-hydroxyethyl)amino)-6-(phenylsulfonyl)phthalazin-1(2H)-one]
98.2% | 97.6 nM | – | Cc1cc(Cn2ncc3cc(S(=O)(=O)c4cnn(C(F)F)c4)ncc3c2=O)n[nH]1 [Example 343]
87.5% | 123 nM | – | COc1ccc(Cn2ncc3cc(S(=O)(=O)c4cccc(F)c4)ccc3c2=O)cn1 [Example 157, 6-((3-fluorophenyl)sulfonyl)-2-((6-methoxypyridin-3-yl)methyl)phthalazin-1(2H)-one]
107% | 109 nM | – | N=S(=O)(c1cn[nH]c1)c1ccc2c(=O)n(Cc3ccc4c(n3)CCO4)ncc2c1 (centres unmarked) [Example 341]
96.5% | 141 nM | – | COc1ccc(S(=O)(=O)c2ccc3c(=O)n(Cc4ccc(OC)nc4O)ncc3c2)cc1 [Example 109, 2-((2-hydroxy-6-methoxypyridin-3-yl)methyl)-6-(4-methoxyphenylsulfonyl)phthalazin-1(2H)-one]
99.4% | 131 nM | – | COc1ccc(Cn2ncc3cc(S(=O)(=O)c4ccc5c(c4)CC(C)(C)O5)ccc3c2=O)cn1 [Example 166, 6-((2,2-dimethyl-2,3-dihydrobenzofuran-5-yl)sulfonyl)-2-((6-methoxypyridin-3-yl)methyl)phthalazin-1(2H)-one]
112% | 24.2 nM | – | Cc1cc(S(=O)(=O)c2ccc3c(=O)n(Cc4ccc5c(n4)CCO5)ncc3c2)n[nH]1 [Example 359]
– | 129 nM | 81.9% | COc1ccc([S@](=N)(=O)c2ccc3c(=O)n(Cc4ccc(OC)nc4)ncc3c2)cc1 (single isomer, unassigned) [Example 139]
111% | 29.3 nM | – | O=c1c2ccc(S(=O)(=O)c3cnn(C(F)F)c3)cc2cnn1Cc1ccc2c(n1)CCO2 [Example 340]
104% | 31.2 nM | – | O=c1c2ccc(S(=O)(=O)c3cc[nH]n3)cc2cnn1Cc1ccc2c(n1)CCO2 [Example 299, 6-((1H-pyrazol-3-yl)sulfonyl)-2-((2,3-dihydrofuro[3,2-b]pyridin-5-yl)methyl)phthalazin-1(2H)-one]
114% | 56.6 nM | – | COc1ccc(S(=O)(=O)c2ccc3c(=O)n(Cc4cc[nH]n4)ncc3c2)cn1 [Example 235, 2-((1H-pyrazol-3-yl)methyl)-6-((6-methoxypyridin-3-yl)sulfonyl)phthalazin-1(2H)-one]
81.9% | 129 nM | – | COc1ccc(S(=N)(=O)c2ccc3c(=O)n(Cc4ccc(OC)nc4)ncc3c2)cc1 (racemic) [Example 137, 6-(4-methoxyphenylsulfonimidoyl)-2-((6-methoxypyridin-3-yl)methyl)phthalazin-1(2H)-one]
95.5% | 145 nM | – | Cn1cc(Cl)c(Cn2ncc3cc(S(=O)(=O)c4cn[nH]c4)ccc3c2=O)n1 [Example 308]
113% | 71.5 nM | – | NC(=O)c1occc1Cn1ncc2cc(S(=O)(=O)c3ccccc3)ccc2c1=O [Example 85, 3-((1-oxo-6-(phenylsulfonyl)phthalazin-2(1H)-yl)methyl)furan-2-carboxamide]
